Laboratory results taken from patent publication US8198317B2, “Methylenedioxy phenolic compounds and their use to treat disease” (The Ohio State University Research Foundation, priority 2008, dated 2012).

Tests used:
[1] = system: Acetyl-CoA Oxidase (ACO); assay: ACO mRNA (PPARα regulated gene) by RT-PCR in HepG2 cells; type: cell-based, human; conditions: HepG2, dose dependent and time dependent
Method: ACO is a PPAR-α regulated gene. HepG2 cells were stimulated by INV 75 (100 μM) for the indicated time, the mRNA expression level of ACO was analyzed by real-time RT-PCR. n=3. *, p<0.05 vs 0.
Cells were stimulated with INV-75 for 4 hours, and mRNA expression level of acetyl co-enzyme A oxidase (ACO) analyzed by real-time RT-PCR. n=3. *, p<0.05 vs −8.5.
We used a reporter gene assay in HepG2 cells to screen for agonists of the peroxisome proliferator-activated receptors. Peroxisome proliferator-activated receptors (PPARs) and other members of the nuclear hormone receptor family are important drug targets for the treatment of metabolic diseases. PPARs play crucial roles in lipid and glucose metabolism, respectively. Therefore, screening methods that help to rapidly identify activators of these receptors should be of considerable value. INV-75 activated a classic PPARα gene, Acetyl-CoA Oxidase (ACO) in a dose dependent and time dependent fashion (FIG. 6A). The time course experiment was performed in presence of INV-75 up to 15 hours. […] We next tested the specificity of INV-75 for PPARα by performing experiments in HepG2 cells transfected with yeast GAL4-PPARα-LBD plasmid+UAS-Luciferase; GAL4-PPARδ-LBD plasmid+UAS-Luciferase and GAL4-PPARα-LBD plasmid+UAS-Luciferase. […]

[2] = system: SREBP-2; assay: SREBP2 nuclear binding by EMSA in HepG2 cells; type: cell-based, human
Method: FIG. 5A is a graph showing in vitro time course of course of Sterol Regulatory and Binding Protein-2 (SREBP2) activity measurement with INV-75. HepG2 cells were stimulated with INV-75 (0.1 mM) for four hours and the binding activity of SREBP2 to nuclear proteins was measured by electrophoretic migration shift assay (EMSA). A total of three experiments were performed. *, p<0.01 by ANOVA compared to vehicle.
FIG. 5B is a graph showing the dose dependent effects of INV-75 on SREBP2 activity. HepG2 cells were stimulated with multiple concentrations of INV-75 for 1 hour and binding activity of SREBP2 in nuclear proteins was measured by electrophoretic migration shift assay (EMSA). A total of three experiments were performed. *, p<0.01 by ANOVA compared to vehicle.
(§1) A family of transcription factors designated SREBP (sterol regulatory element binding proteins) regulate synthesis of cholesterol and fatty acids. Of these, SREBP-2 mainly regulates cholesterol biosynthesis by alteration of cholesterol synthesis enzymes and LDL receptor expression (SREBP-1c mainly regulates fatty acid synthesis). […] The time course with this dose and dose dependence was analyzed. Next we assessed the expression of both precursor and mature form of SREBP-2 in the cytoplasm by western analysis. Both time course and dose dependence of mature form of SREBP-2 was analyzed.

[3] = system: SREBP-2; assay: SREBP-2 precursor and mature form by western analysis in HepG2 cells; type: cell-based, human; conditions: HepG2, 1 hour
Method: FIG. 5C is a graph showing in vitro time course SREBP2 activation measured by the assessment of the mature form with INV-75 in the cytoplasm of treated cells. HepG2 cells were stimulated with INV-75 (0.1 mM) for four hours and the mature and precursor forms of SREBP2 was measured by western blot analysis. A total of three experiments were performed. *, p<0.01 by ANOVA compared to vehicle. The corresponding western blot is depicted on the right. Time is in hours on the right.
FIG. 5D is a graph showing dose dependent effects of INV-75 on SREBP2 activation assessed with mature form INV-75. HepG2 cells were stimulated with multiple concentrations of INV-75 for 1 hour and the mature and precursor forms of SREBP2 was measured by western blot analysis. A total of three experiments were performed. *, p<0.01 by ANOVA compared to vehicle. Dose of INV-75 is log molar concentration.
as §1, with “acids.” for “acids. Of these, SREBP-2 mainly regulates cholesterol biosynthesis by alteration of cholesterol synthesis enzymes and LDL receptor expression (SREBP-1c mainly regulates fatty acid synthesis).”

[4] = system: New Zealand White rabbits; assay: Oil Red O staining of abdominal aorta of NZW rabbits; type: in vivo, rabbit
Method: Animal Model: 15 male New Zealand White rabbits (Charles River, Mass.) were fed with high fat diet (HFD) (Harlan Teklad rabbit diet with 0.5% cholesterol, TD 87251). After 4 weeks of high fat diet, rabbits were randomized into three different treatment groups, normal control (n=5), lipoic acid (100 mg/kg/day) (n=5), INV 70-65 (100 mg/kg/day) (n=5). These drugs were administered to the animals via their chow by mixing the drugs with the high fat diet. A fixed amount of chow and drugs admixed in the chow were fed to all animals every day after carefully calculating food intake in each rabbit. Drugs were dissolved in 100% ethanol and sprayed onto the diet and kept under vacuum to let ethanol evaporate overnight. Two (2) weeks after drug or control admixed HFD, all rabbits underwent aortic balloon denudation surgeries followed by 12 weeks of continued administration of drug or controls admixed with HFD. FIG. 29 provides an outline of the experimental design.
Hypercholesterolemia and oxidative stress play an important role in the development of atherosclerosis. The rabbits were sacrificed and abdominal aortas were fixed in 4% PFA (paraformaldehyde). The lipid deposition in the aortic wall was then visualized by oil red staining.

SMILES | Acetyl-CoA Oxidase (ACO) gene activation [1] | time to increased nuclear binding of SREBP-2 ([2]; HepG2, 0.1 mM) [h] | dose effective in inducing translocation of SREBP-2 to the nucleus ([2]; HepG2, 1 hour) [nM] | dose having an effect in increasing the mature form of SREBP-2 [3] [nM] | reduction in lipid deposition in the aortic wall compared to controls ([4]; NZW) | reduction in lipid deposition in the aortic wall compared to lipoic acid ([4]; NZW) | lipid content in the plaque area (Oil Red O) compared to the control group ([4]; NZW abdominal aorta)
CC(=O)Oc1cc2c(cc1[N+](=O)[O-])OCO2 [INV-75, 3,4-methylenedioxy-6-nitrophenyl acetate] | activated | < 1 | ≥ 100 | ≥ 10 | – | – | –
O=C(CCCCC1CCSS1)Oc1ccc2c(c1)OCO2 (stereo not shown) [INV-7065, 3,4-Methylenedioxy phenyl lipoate] | – | – | – | – | about 80% | about 40% | reduction
